B1: JBD1-280: the GFP vector linked to the entire JBD (aa 1-280) (protein, UniProt Q9UQF2 1-280, looked up, fragment)
chain: MAERESGGLGGGAASPPAASPFLGLHIASPPNFRLTHDISLEEFEDEDLSEITDECGISLQCKDTLSLRPPRAGLLSAGGGGAGSRLQAEMLQMDLIDATGDTPGAEDDEEDDDEERAARRPGAGPPKAESGQEPASRGQGQSQGQSQGPGSGDTYRPKRPTTLNLFPQVPRSQDTLNNNSLGKKHSWQDRVSRSSSPLKTGEQTPPHEHICLSDELPPQSGPAPTTDRGTSTDSPCRRSTATQMAPPGGPPAAPPGGRGHSHRDRIHYQADVRLEATEE
modifications: fused to GFP

Assays:
[1] = tested on: TC-3 cell cultures; test: Cellular import and intracellular persistence of fluorescein-labeled peptides in TC-3 cells; assay type: cell-based; conditions: 1 μM
Protocol: The ability of the L- and D-enantiomeric forms of TAT and TAT-IB1(s) peptides (“TAT-IB peptides”) to enter cells was evaluated. L-TAT, D-TAT, L-TAT-IB1(s), and D-TAT-IB1(s) peptides [SEQ ID NOs: 5, 6, 9 and 12, respectively] were labeled by N-terminal addition of a glycine residue conjugated to fluorescein. Labeled peptides (1 μM) were added to TC-3 cell cultures, which were maintained as described in Example 3. At predetermined times cells were washed with PBS and fixed for five minutes in ice-cold methanol-acetone (1:1) before being examined under a fluorescence microscope. Fluorescein-labeled BSA (1 μM, 12 moles/mole BSA) was used as a control.
Little to no signal was present at 48 hours.

[2] = tested on: TC-3 cells; test: IL-1 induced pancreatic beta-cell death in TC-3 cells treated with peptides; assay type: cell-based; conditions: one single addition 1 μM, IL-1 10 ng/ml every two days
Protocol: Inhibition of IL-1 induced pancreatic beta-cell death by the D-TAT-IB1(s) peptide was analyzed. TC-3 cells were incubated as described above for 30 minutes with one single addition of the indicated peptides (1, μM), then IL-1 (10 ng/ml) was added.
Apoptotic cells were then counted after two days of incubation with IL-1 by use of Propidium Iodide and Hoechst 33342 nuclear staining. A minimum of 1,000 cells were counted for each experiment.
Long term inhibition of IL-1P induced cell-death by the D-TAT-IB1 peptide was also analyzed. TC-3 cells were incubated as above for 30 minutes with one single addition of the indicated peptides (1 μM), then IL-1 (10 ng/ml) was added, followed by addition of the cytokine every two days. Apoptotic cells were then counted after 15 days of incubation with IL-1 by use of propidium iodide and Hoechst 33342 nuclear staining. […] A minimum of 1.000 cells were counted for each experiment.

[3] = tested on: recombinant JNK1, JNK2 and JNK3; test: Solid phase kinase assay, phosphorylation of c-Jun, ATF2 and Elk1 by recombinant JNKs; assay type: biochemical
Protocol: (§1) The effects of the peptides on JNKs-mediated phosphorylation of their target transcription factors were investigated in vitro. Recombinant and non activated JNK1, JNK2 and JNK3 were produced using a TRANSCRIPTION AND TRANSLATION rabbit reticulocyte lysate kit (Promega) and used in solid phase kinase assays with c-Jun, ATF2 and Elk1, either alone or fused to glutathione-S-transferase (GST), as substrates. Dose response studies were performed wherein L-TAT or L-TAT-IB1(s) peptides (0-25 μM) were mixed with the recombinant JNK1, JNK2, or JNK3 kinases in reaction buffer (20 mM Tris-acetate, 1 mM EGTA, 10 mM p-nitrophenyl-phosphate (pNPP), 5 mM sodium pyrophosphate, 10 mM p-glycerophosphate, 1 mM dithiothreitol) for 20 minutes. The kinase reactions were then initiated by the addition of 10 mM MgCl2 and 5 pCi ^33P-dATP and 1 μg of either GST-Jun (aa 1-89), GST-AFT2 (aa 1-96) or GST-ELK1 (aa 307-428). GST-fusion proteins were purchased from Stratagene (La Jolla, Calif.).
(§2) Ten μL of glutathione-agarose beads were also added to the mixture. Reaction products were then separated by SDS-PAGE on a denaturing 10% polyacrylamide gel. Gels were dried and subsequently exposed to X-ray films (Kodak). […] The ability of D-TAT, D-TAT-IB1(s) and L-TAT-IB1(s) peptides (0-250 μM dosage study) to inhibit GST-Jun (aa 1-73) phosphorylation by recombinant JNK1, JNK2, and JNK3 by were analyzed as described above. Overall, D-TAT-IB1(s) peptide decreased JNK-mediated phosphorylation of c-Jun, but at levels approximately 10-20 fold less efficiently than L-TAT-IB1(s).

[4] = biological target: T1, JNK3 (Homo sapiens, UniProt P53779); test: Solid phase kinase assay, JNK3 phosphorylation of Elk1; assay type: biochemical; conditions: dose response 0-25 μM
T1 construct: host or cells: cell-free: rabbit reticulocyte lysate, in vitro transcription and translation
T1 sequence (P53779 whole entry, species assumed): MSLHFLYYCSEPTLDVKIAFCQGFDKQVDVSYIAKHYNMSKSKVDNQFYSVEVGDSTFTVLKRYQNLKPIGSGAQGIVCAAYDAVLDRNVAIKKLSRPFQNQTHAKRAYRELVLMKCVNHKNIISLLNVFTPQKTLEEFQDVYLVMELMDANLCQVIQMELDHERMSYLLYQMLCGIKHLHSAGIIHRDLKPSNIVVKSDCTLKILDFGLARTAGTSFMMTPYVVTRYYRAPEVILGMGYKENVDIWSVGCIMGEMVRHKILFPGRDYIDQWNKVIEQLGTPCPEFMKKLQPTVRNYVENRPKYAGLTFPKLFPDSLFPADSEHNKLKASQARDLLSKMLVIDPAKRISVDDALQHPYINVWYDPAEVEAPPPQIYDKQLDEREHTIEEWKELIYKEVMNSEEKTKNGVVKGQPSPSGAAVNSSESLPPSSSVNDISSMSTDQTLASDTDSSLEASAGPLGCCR
Protocol: as §1
as §2, with “Overall, D-TAT-IB1(s) peptide decreased JNK-mediated phosphorylation of c-Jun, but at levels approximately 10-20 fold less efficiently than L-TAT-IB1(s).” left out

[5] = tested on: JNKs from UV-light irradiated HeLa cells or IL-1 treated PTC cells; test: c-Jun phosphorylation by activated JNKs pulled down with GST-Jun from stressed cells; assay type: biochemical; conditions: 25 μM peptide
Protocol: The effects of the L-TAT or L-TAT-IB1(s) peptides as defined herein on JNKs activated by stressful stimuli were evaluated using GST-Jun to pull down JNKs from UV-light irradiated HeLa cells or IL-1 treated PTC cells. PTC cells were cultured as described above. HeLa cells were cultured in DMEM medium supplemented with 10% Fetal Calf Serum, 100 μg/mL Streptomycin, 100 units/ml Penicillin and 2 mM Glutamine. One hour prior to being used for cell extract preparation, PTC cells were activated with IL-1 as described above, whereas HeLa cells were activated by UV-light (20 J/m^2). Cell extracts were prepared from control, UV-light irradiated HeLa cells and IL-1 treated TC-3 cells by scraping the cell cultures in lysis buffer (20 mM Tris-acetate, 1 mM EGTA, 1% Triton X-100, 10 mM p-nitrophenyl-phosphate, 5 mM sodium pyrophosphate, 10 mMP-glycerophosphate, 1 mM dithiothreitol). Debris were removed by centrifugation for five minutes at 15,000 rpm in an SS-34 Beckman rotor. One-hundred μg extracts were incubated for one hour at room temperature with one μg GST-jun (amino acids 1-89) and 10 μL of glutathione-agarose beads (Sigma). Following four washes with the scraping buffer, the beads were resuspended in the same buffer supplemented with L-TAT or L-TAT-IB1(s) peptides (25 μM) for 20 minutes. […]

[6] = tested on: JNK mediated activation of c-Jun in HeLa cells; test: GAL4-Jun luciferase reporter assay in HeLa cells with MKK4/MKK7 co-transfection; assay type: cell-based; conditions: 1 μM peptide, 16 hours
Description: To determine whether the cell-permeable peptides as defined herein could block JNK signaling in vivo, we used a heterologous GAL4 system. HeLa cells, cultured as described above, were co-transfected with the 5×GAL-LUC reporter vector together with the GAL-Jun expression construct (Stratagene) comprising the activation domain of c-Jun (amino acids 1-89) linked to the GAL4 DNA-binding domain. Activation of JNK was achieved by the co-transfection of vectors expressing the directly upstream kinases MKK4 and MKK7 (see Whitmarsh et al, Science 285: 1573 (1999)). Briefly, 3×10^5 cells were transfected with the plasmids in 3.5-cm dishes using DOTAP (Boehringer Mannheim) following instructions from the manufacturer. For experiments involving GAL-Jun, 20 ng of the plasmid was transfected with 1 μg of the reporter plasmid pFR-Luc (Stratagene) and 0.5 μg of either MKK4 or MKK7 expressing plasmids. Three hours following transfection, cell media were changed and TAT and TAT-IB1(s) peptides (1 μM) were added. The luciferase activities were measured 16 hours later using the “Dual Reporter System” from Promega after normalization to protein content. […] Because HeLa cells express JNK1 and JNK2 isoforms but not JNK3, we transfected cells with JNK3.

[7] = tested on: AP-1 DNA binding complex; test: Gel retardation assay with AP-1 probe, HeLa cell nuclear extracts; assay type: cell-based; conditions: in the presence of TNF-alpha, peptide added 30 minutes before
[8] = tested on: Insulin producing TC-3 cells; conditions: previously shown (Ammendrup et al.); cited from earlier work

Row | Molecule | entry into cells [1] | long term protection from IL-1 induced cell-death, 15 days [2] | inhibiting JNK family phosphorylation of their target transcription factors, overall [3] | peptide dose at which nearly complete inhibition of c-Jun, ATF2 and Elk1 phosphorylation by JNKs was observed (as low as) ([3]; dose response 0-25 μM) [µM] | inhibition of JNK3 phosphorylation of Elk1 [4] | prevention of phosphorylation of c-Jun by activated JNKs [5] | activation of c-Jun following MKK4 and MKK7 mediated activation of JNK (luciferase) [6] | formation of the AP-1 DNA binding complex [7] | block of IL1 induced pancreatic beta-cell apoptosis by transfection [8]
1 | NH2-GRKKRRQRRRPPRPKRPTTLNLFPQVPRSQD-COOH (H-GRKKRRQRRRPPRPKRPTTLNLFPQVPRSQD-OH) [L-TAT-IB1(s)] | efficiently and rapidly (less than five minutes) entered cells | not | superior effects | 2.5 | absence of TAT-IB(s) inhibition | efficiently prevented phosphorylation of c-Jun | blocked activation of c-Jun | decrease the formation of the AP-1 DNA binding complex | 
2 | B1 |  |  |  |  |  |  |  |  | blocked

Reference: patent US9180159B2, “Use of cell-permeable peptide inhibitors of the JNK signal transduction pathway for the treatment of chronic or non-chronic inflammatory digestive diseases” (Xigen Inflammation Ltd., priority 2008, dated 2015)
